Laboratory results published in patent US10004732B2 (Novartis AG, priority 2014, dated 2018).
Where two headings read alike, the source gives them in different places.

Tests used:
[1] = target: PI 3-kinase delta (Homo sapiens, UniProt O00329); test: TR-FRET Adapta assay, assay F
[2] = target: Vps34 (Homo sapiens, UniProt Q8NEB9); test: Kinase Glo Luminescent Kinase Assay (Kglo), assay C; type: biochemical; conditions: read-out: Assay C VPS34 IC50
[3] = target: PI 3-kinase alpha (Homo sapiens, UniProt P42336); test: Kinase Glo Luminescent Kinase Assay (Kglo), assay A; type: biochemical; conditions: read-out: Assay A PI3Kα IC50
PI 3-kinase alpha, sequence (P42336 whole entry): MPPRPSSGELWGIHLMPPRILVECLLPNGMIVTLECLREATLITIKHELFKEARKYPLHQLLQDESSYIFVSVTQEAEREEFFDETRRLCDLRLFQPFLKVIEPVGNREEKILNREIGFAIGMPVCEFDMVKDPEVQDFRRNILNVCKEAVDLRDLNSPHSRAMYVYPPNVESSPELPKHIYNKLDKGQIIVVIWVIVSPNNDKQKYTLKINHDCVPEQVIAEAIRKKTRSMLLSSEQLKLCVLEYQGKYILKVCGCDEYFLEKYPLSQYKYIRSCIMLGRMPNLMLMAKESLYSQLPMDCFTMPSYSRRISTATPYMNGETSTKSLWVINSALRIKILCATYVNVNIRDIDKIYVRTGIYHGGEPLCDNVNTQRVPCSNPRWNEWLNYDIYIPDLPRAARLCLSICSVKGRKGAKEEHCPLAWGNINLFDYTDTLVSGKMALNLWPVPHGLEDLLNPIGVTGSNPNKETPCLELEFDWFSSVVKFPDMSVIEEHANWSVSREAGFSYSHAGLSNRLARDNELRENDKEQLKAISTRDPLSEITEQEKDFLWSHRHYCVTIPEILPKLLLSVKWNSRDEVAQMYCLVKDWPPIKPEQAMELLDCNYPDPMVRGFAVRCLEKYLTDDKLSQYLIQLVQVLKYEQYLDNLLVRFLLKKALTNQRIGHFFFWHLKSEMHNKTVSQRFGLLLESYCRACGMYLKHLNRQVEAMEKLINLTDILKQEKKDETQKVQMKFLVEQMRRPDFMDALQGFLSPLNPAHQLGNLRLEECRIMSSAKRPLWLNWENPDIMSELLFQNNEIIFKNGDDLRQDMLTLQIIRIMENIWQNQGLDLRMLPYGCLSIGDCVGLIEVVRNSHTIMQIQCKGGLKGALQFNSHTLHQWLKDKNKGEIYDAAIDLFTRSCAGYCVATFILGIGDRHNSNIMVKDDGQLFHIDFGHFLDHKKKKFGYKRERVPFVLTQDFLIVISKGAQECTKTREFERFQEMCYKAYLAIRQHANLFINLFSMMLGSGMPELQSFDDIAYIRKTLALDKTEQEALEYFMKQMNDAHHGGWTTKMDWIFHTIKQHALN

[4] = target: PI 3-kinase beta (Homo sapiens, UniProt P42338); test: Kinase Glo Luminescent Kinase Assay (Kglo), assay B; type: biochemical; conditions: read-out: Assay B PI3Kβ IC50
PI 3-kinase beta, sequence (P42338 whole entry): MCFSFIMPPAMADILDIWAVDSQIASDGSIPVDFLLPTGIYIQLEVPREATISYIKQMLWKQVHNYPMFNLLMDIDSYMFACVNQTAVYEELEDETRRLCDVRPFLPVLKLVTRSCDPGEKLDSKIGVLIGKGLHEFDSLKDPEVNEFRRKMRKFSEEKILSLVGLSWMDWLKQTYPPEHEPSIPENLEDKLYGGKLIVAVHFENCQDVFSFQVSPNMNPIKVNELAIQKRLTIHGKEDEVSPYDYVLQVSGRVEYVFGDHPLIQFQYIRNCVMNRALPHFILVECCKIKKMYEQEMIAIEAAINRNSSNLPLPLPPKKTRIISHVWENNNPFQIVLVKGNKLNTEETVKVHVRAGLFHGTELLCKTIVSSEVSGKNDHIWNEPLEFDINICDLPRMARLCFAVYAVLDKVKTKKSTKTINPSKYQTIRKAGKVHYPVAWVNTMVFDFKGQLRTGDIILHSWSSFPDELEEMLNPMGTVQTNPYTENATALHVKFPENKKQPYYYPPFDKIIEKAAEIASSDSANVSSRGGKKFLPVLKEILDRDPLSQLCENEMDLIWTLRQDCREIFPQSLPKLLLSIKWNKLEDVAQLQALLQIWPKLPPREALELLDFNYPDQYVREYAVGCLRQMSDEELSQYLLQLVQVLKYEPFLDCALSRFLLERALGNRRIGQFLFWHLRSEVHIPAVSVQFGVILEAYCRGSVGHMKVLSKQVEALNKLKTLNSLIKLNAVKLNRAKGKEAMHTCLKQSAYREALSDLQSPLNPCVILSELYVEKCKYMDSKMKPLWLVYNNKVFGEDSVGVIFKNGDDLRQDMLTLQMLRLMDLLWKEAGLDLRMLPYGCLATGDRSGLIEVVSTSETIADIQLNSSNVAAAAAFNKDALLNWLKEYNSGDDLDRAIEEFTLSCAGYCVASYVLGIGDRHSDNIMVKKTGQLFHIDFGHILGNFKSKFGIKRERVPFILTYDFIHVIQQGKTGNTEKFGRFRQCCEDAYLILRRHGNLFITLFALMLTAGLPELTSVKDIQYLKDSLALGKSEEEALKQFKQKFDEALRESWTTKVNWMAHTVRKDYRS
PI 3-kinase beta, sequence (P27986 461-568 partner): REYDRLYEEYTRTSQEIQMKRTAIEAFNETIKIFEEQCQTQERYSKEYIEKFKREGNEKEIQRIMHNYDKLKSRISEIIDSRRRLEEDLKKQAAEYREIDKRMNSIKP
Method: Kinase Glo Luminescent Kinase Assay (Kglo) for Pb 3-Kinase Alpha (A), Pb 3-Kinase Beta (B), Vps34 (C), Pb 4-Kinase Beta (D)
The Kinase Glo Luminescent Kinase Assay (Promega, Madison/Wis., USA) is a homogeneous HTS method of measuring kinase activity by quantifying the amount of ATP remaining in solution following a kinase reaction.
L-α-phosphatidylinositol (PI), provided as 10 mg/ml solution in methanol, was transferred into a glass tube and dried under a nitrogen beam. It was then resuspended in 3% OctylGlucoside (1-0-n-octyl-beta-D-glucopyranoside) by vortexing and stored at 4° C. 5 μL of a mix of PI/OctylGlucoside with the PI 3-kinase alpha and PI 3-kinase beta subtypes, or Vps34 or PI 4-kinase beta were added. Kinase reactions were started by the addition of 5 μl of an ATP-mix containing in a final volume 10 μL 10 mM TRIS-HCl pH 7.5, 3 mM MgCl2, 50 mM NaCl, 0.05% CHAPS, 1 mM DTT and 1 μM ATP at room temperature.
All fits were performed with the program XLfit4 (ID Business Solutions, Guildford, UK).

[5] = target: mTOR (Homo sapiens, UniProt P42345); test: Lanthascreen kinase binding assay, assay G; conditions: read-out: Assay G mTOR IC50
Method: Lanthascreen™ Kinase Binding Assay for mTOR (G)
Binding of an inhibitor to the kinase competes for binding with the tracer, resulting in a loss of FRET.
50 nL of compound dilutions were dispensed onto white 384-well small volume polystyrene plate.

[6] = target: PI 3-kinase gamma (Homo sapiens, UniProt P48736); test: TR-FRET Adapta assay, assay E; type: biochemical; conditions: read-out: Assay E PI3Kγ IC50
[7] = target: PI 4-kinase beta (Homo sapiens, UniProt Q9UBF8); test: Kinase Glo Luminescent Kinase Assay (Kglo), assay D; type: biochemical; conditions: read-out: Assay D PI4Kβ IC50
PI 4-kinase beta, sequence (Q9UBF8 whole entry): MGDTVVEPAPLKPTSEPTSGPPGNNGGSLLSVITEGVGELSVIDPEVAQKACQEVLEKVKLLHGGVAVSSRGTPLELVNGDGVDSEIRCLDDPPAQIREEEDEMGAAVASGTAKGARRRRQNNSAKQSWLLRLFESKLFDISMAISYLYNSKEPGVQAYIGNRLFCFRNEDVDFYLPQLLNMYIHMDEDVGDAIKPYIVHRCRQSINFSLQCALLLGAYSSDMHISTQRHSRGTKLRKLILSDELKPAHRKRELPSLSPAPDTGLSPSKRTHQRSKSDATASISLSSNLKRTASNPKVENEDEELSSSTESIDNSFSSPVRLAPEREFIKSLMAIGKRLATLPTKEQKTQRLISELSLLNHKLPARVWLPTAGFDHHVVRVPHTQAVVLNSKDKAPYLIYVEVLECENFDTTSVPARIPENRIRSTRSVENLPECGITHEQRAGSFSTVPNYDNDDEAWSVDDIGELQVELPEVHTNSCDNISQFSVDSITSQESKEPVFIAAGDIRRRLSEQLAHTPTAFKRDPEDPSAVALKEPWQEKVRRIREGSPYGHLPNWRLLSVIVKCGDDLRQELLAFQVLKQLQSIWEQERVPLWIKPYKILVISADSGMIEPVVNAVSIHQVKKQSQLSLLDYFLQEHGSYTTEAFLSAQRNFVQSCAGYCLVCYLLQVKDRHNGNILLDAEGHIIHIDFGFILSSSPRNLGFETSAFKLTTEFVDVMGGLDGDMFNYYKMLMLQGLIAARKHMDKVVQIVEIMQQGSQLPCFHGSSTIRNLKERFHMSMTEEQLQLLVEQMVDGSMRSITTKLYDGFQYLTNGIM

PI 3-kinase delta, sequence (O00329 whole entry): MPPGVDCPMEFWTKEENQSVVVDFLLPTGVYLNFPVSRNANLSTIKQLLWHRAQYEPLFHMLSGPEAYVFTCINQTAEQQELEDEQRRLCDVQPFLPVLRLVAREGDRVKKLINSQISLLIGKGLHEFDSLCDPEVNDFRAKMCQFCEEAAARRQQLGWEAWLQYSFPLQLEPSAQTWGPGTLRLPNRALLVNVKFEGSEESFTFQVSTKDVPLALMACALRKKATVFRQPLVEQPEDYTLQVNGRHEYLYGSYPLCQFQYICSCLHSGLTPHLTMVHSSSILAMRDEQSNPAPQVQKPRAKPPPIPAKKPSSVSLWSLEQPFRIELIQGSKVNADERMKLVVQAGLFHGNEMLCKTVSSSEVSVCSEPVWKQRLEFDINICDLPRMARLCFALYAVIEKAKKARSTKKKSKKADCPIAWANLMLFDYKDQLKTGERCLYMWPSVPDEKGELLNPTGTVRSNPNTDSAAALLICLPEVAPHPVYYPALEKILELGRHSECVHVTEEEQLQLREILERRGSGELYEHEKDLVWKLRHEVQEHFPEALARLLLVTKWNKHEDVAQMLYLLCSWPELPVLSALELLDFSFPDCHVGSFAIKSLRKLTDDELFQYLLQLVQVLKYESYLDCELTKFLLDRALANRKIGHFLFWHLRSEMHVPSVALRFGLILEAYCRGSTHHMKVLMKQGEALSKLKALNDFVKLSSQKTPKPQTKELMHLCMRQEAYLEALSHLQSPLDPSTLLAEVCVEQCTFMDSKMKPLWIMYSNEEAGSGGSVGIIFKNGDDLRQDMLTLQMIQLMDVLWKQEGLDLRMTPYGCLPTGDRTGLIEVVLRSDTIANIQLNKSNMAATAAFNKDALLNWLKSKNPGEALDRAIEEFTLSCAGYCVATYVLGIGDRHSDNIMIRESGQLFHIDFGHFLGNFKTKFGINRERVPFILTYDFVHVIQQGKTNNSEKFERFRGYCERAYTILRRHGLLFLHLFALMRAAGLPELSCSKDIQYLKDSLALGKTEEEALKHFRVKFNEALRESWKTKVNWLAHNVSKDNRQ
PI 3-kinase delta, sequence (P27986 461-568 partner): as the sequence (P27986 461-568 partner) above
Vps34, sequence (Q8NEB9 whole entry, species assumed): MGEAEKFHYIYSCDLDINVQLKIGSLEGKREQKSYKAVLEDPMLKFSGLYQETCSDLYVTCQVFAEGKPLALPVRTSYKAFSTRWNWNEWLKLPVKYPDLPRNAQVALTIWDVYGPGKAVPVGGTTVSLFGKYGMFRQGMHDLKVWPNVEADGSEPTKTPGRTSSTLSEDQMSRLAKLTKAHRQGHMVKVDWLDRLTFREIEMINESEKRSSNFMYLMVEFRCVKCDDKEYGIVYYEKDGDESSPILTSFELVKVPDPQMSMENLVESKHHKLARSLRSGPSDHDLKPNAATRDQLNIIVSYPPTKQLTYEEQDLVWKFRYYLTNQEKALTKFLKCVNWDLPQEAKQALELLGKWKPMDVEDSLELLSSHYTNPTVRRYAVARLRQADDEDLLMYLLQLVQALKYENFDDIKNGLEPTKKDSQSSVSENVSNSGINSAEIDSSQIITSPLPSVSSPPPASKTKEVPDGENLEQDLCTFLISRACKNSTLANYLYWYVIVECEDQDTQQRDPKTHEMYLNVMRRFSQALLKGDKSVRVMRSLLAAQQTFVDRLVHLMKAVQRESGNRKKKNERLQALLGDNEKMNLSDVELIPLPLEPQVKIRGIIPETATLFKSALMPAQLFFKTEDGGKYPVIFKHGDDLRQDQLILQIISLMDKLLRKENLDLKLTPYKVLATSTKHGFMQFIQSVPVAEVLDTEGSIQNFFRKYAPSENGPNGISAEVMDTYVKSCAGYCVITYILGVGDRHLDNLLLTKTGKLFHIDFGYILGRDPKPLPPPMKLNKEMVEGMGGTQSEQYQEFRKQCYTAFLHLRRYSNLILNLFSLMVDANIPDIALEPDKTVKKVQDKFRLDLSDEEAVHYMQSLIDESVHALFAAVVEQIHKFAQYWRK

| Structure (SMILES) | IC50 [1] | IC50 [2] | IC50 [3] | IC50 [4] | IC50 [5] | IC50 [6] | IC50 [7] | IC50 ([1]; read-out: Assay F PI3Kδ IC50) |
| --- | --- | --- | --- | --- | --- | --- | --- | --- |
| Cc1cc(-c2nc(-c3cc(S(=O)(=O)N[C@H]4CCC[C@@H]4N)ccc3C)cnc2N)ccn1 [Example 129.38, 3-(5-amino-6-(2-methylpyridin-4-yl)pyrazin-2-yl)-N-((1S,2S)-2-aminocyclopentyl)-4-methylbenzenesulfonamide] | 4.5 µM | > 9.1 µM | 1.6 µM | 2.7 µM | > 9.1 µM | 0.82 µM | > 9.1 µM |  |
| Cc1cc(-c2nc(-c3cc(S(=O)(=O)NCC(C)(C)O)ccc3C)cnc2N)on1 [Example 88, 3-(5-Amino-6-(3-methylisoxazol-5-yl)pyrazin-2-yl)-N-(2-hydroxy-2-methylpropyl)-4-methylbenzenesulfonamide] |  |  |  | 2.2 µM |  |  | 6.1 µM | 1.1 µM |
| Cc1cc(-c2nc(-c3cc(S(=O)(=O)N[C@H]4CC[C@H](N)CC4)ccc3C)cnc2N)ccn1 [Example 129.43, 3-(5-amino-6-(2-methylpyridin-4-yl)pyrazin-2-yl)-N-((1r,4r)-4-aminocyclohexyl)-4-methylbenzenesulfonamide] |  | > 9.1 µM | 3 µM | 5.7 µM | > 9.1 µM | 1 µM | > 9.1 µM | 2.3 µM |
| CC[C@H](CO)NS(=O)(=O)c1ccc(C)c(-c2cnc(N)c(-c3ccnc(C)c3)n2)c1 [Example 129.7, (R)-3-(5-amino-6-(2-methylpyridin-4-yl)pyrazin-2-yl)-N-(1-hydroxybutan-2-yl)-4-methylbenzenesulfonamide] |  | > 9.1 µM | 0.9 µM | > 9.1 µM | 7.8 µM | 0.27 µM | > 9.1 µM | 3.3 µM |
| Cc1cc(-c2nc(-c3cc(S(=O)(=O)NC[C@@](C)(O)C(F)(F)F)ccc3C)cnc2N)ccn1 [Example 129.20, (R)-3-(5-amino-6-(2-methylpyridin-4-yl)pyrazin-2-yl)-4-methyl-N-(3,3,3-trifluoro-2-hydroxy-2-methylpropyl)benzenesulfonamide] |  | > 9.1 µM | 0.32 µM | 8.5 µM | > 9.1 µM | 0.11 µM | > 9.1 µM | 0.29 µM |
| CCN(CC)CCCNS(=O)(=O)c1ccc(C)c(-c2cnc(N)c(-c3ccnc(C)c3)n2)c1 [Example 129.23, 3-(5-amino-6-(2-methylpyridin-4-yl)pyrazin-2-yl)-N-(3-(diethylamino)propyl)-4-methylbenzenesulfonamide] |  | > 9.1 µM | 2.8 µM | 3.3 µM | > 9.1 µM | 0.38 µM | > 9.1 µM | 1.9 µM |
| Cc1ccc(S(=O)(=O)NCC(C)(C)O)cc1-c1cnc(N)c(-c2cn(C)nc2C)n1 [Example 13] |  | > 10 µM |  | 1.09 µM | > 10 µM |  | 6.5 µM |  |
| Cc1ncc(-c2nc(-c3cc(S(=O)(=O)NCC4COCCN4C)ccc3C)cnc2N)s1 (stereo not shown) [Example 45.12, 3-(5-Amino-6-(2-methylthiazol-5-yl)pyrazin-2-yl)-4-methyl-N-((4-methylmorpholin-3-yl)methyl)benzenesulfonamide] |  | 2.6 µM | 0.05 µM | 0.39 µM |  | 0.015 µM | 1.4 µM | 0.1 µM |
| Cc1ncc(-c2nc(-c3cc(S(=O)(=O)NCCO)ccc3C)cnc2N)s1 [Example 45, 3-(5-Amino-6-(2-methylthiazol-5-yl)pyrazin-2-yl)-N-(2-hydroxyethyl)-4-methylbenzenesulfonamide] |  | 1.1 µM |  | 0.53 µM |  |  | 1.6 µM | 0.23 µM |
| Cc1ccc(S(=O)(=O)NCC(C)(C)CO)cc1-c1cnc(N)c(-c2nc(C3CC3)no2)n1 [Example 93, 3-(5-Amino-6-(3-cyclopropyl-1,2,4-oxadiazol-5-yl)pyrazin-2-yl)-N-(3-hydroxy-2,2-dimethylpropyl)-4-methylbenzenesulfonamide] |  | > 9.1 µM |  |  | > 9.1 µM |  | > 9.1 µM |  |
